biological target: T1, human GLP-1R (Homo sapiens, UniProt P43220); assay: GLP-1R cAMP assay (Example B1a, HTRF, 30 min at room temperature); assay type: cell-based; conditions: cAMP accumulation in HEK293 expressing human GLP-1R, no BETP, 30 min room temperature (Method B1a, compounds ID 1-609), Table 1; read-out: EC50
T1 construct: host or cells: HEK293
Outline: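 Competitive HTRF read-out of cAMP after 30 min room-temperature stimulation, BETP absent, of human GLP-1R-HEK293 cells (1,000/well) in HEPES buffer with 500 μM IBMX and 0.1% BSA. Activation normalised to GLP-1(7-37) positive control. EC50 from 4-parameter non-linear regression.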

T1 sequence (P43220 24-463): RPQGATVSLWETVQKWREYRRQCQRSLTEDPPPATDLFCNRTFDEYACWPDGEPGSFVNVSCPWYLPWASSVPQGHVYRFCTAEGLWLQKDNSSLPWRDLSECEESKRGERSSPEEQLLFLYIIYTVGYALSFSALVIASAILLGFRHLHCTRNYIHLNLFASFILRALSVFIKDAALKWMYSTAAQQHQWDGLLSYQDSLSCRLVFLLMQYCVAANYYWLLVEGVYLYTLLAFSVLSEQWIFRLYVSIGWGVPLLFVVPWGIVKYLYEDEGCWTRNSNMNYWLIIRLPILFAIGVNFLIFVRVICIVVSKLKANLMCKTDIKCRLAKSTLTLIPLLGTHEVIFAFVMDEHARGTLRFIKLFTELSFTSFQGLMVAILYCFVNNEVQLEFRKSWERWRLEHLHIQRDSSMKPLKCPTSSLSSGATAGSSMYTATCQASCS

Row | Structure (SMILES) | EC50
1 | CCP(=O)(CC)c1ccc(-n2ccn(-c3c4c(nn3-c3cc(C)c(F)c(C)c3)C[C@H]3CC[C@@H]4N3C(=O)c3cc4cc(C5CCOCC5)ccc4n3[C@@]3(c4noc(=O)[nH]4)C[C@@H]3C)c2=O)cc1NC [Compound 216, 3-[(1S,2S)-1-[2-[(1S,8R)-3-[3-[4-diethylphosphoryl-3-(methylamino)phenyl]-2-oxo-imidazol-1-yl]-4-(4-fluoro-3,5-dimethyl-phenyl)-4,5,11-triazatricyclo[6.2.1.02,6]undeca-2,5-diene-11-carbonyl]-5-tetrahydropyran-4-yl-indol-1-yl]-2-methyl-cyclopropyl]-4H-1,2,4-oxadiazol-5-one] | 233 nM
2 | Cc1cc(-n2nc3c(c2-c2ncn(-c4ccc5c(cnn5C)c4F)c2C)[C@H](C)N(C(=O)c2cc4cc(C5=CCC(F)(F)CC5)ccc4n2C2(c4noc(=O)[nH]4)CC2)CC3)cc(C)c1F [Compound 105, 3-[1-[5-(4,4-difluorocyclohexen-1-yl)-2-[(4S)-2-(4-fluoro-3,5-dimethyl-phenyl)-3-[1-(4-fluoro-1-methyl-indazol-5-yl)-5-methyl-imidazol-4-yl]-4-methyl-6,7-dihydro-4H-pyrazolo[4,3-c]pyridine-5-carbonyl]indol-1-yl]cyclopropyl]-4H-1,2,4-oxadiazol-5-one] | > 10000 nM
3 | Cc1cc(-n2nc3c(c2-n2ccn(-c4ccc5c(cnn5C)c4F)c2=O)[C@@H]2CC[C@H](C3)N2S(=O)(=O)c2cc3cc([C@H]4CCOC(C)(C)C4)ccc3n2[C@@]2(c3noc(=O)[nH]3)C[C@@H]2C)cc(C)c1F [Compound 525, 3-[(1S,2S)-1-[5-[(4S)-2,2-dimethyltetrahydropyran-4-yl]-2-[[(1S,8R)-4-(4-fluoro-3,5-dimethyl-phenyl)-3-[3-(4-fluoro-1-methyl-indazol-5-yl)-2-oxo-imidazol-1-yl]-4,5,11-triazatricyclo[6.2.1.02,6]undeca-2,5-dien-11-yl]sulfonyl]indol-1-yl]-2-methyl-cyclopropyl]-4H-1,2,4-oxadiazol-5-one] | 58.4 nM
4 | Cc1cc(-n2nc3c(c2-c2ncn(-c4ccc5c(cnn5C)c4F)c2C)[C@H](C)N(C(=O)c2cc4cc([C@H]5CCOC(C)(C)C5)ccc4n2[C@@]2(c4noc(=O)[nH]4)C[C@@H]2C)CC3)cc(C)c1F [Compound 15, 3-((1S,2S)-1-(5-((S)-2,2-dimethyltetrahydro-2H-pyran-4-yl)-2-((S)-3-(1-(4-fluoro-1-methyl-1H-indazol-5-yl)-5-methyl-1H-imidazol-4-yl)-2-(4-fluoro-3,5-dimethylphenyl)-4-methyl-4,5,6,7-tetrahydro-2H-pyrazolo[4,3-c]pyridine-5-carbonyl)-1H-indol-1-yl)-2-methylcyclopropyl)-1,2,4-oxadiazol-5 (4H)-one] | 584 nM
5 | Cc1cc(-n2nc3c(c2-n2ccn(-c4ccc5c(cnn5C)c4F)c2=O)[C@@H]2CC[C@H](C3)N2C(=O)c2cc3c(=O)n([C@H]4CCOC(C)(C)C4)ccc3n2[C@@]2(c3noc(=O)[nH]3)C[C@@H]2C)cc(C)c1F [Compound 238, 3-[(1S,2S)-1-[5-[(4S)-2,2-dimethyltetrahydropyran-4-yl]-2-[(1S,8R)-4-(4-fluoro-3,5-dimethyl-phenyl)-3-[3-(4-fluoro-1-methyl-indazol-5-yl)-2-oxo-imidazol-1-yl]-4,5,11-triazatricyclo[6.2.1.02,6]undeca-2,5-diene-11-carbonyl]-4-oxo-pyrrolo[3,2-c]pyridin-1-yl]-2-methyl-cyclopropyl]-4H-1,2,4-oxadiazol-5-one] | > 10000 nM

The next lines start with the values.

Row | EC50 | Structure (SMILES)
6 | 1340 nM | Cc1cc(-n2nc3c(c2-n2ccn(-c4ccc5c(cnn5C)c4F)c2=O)[C@@H]2CC[C@H](C3)N2C(=O)c2cc3cc([C@@H]4CCOC(C)(C)C4)cnc3n2[C@@]2(c3noc(=O)[nH]3)C[C@@H]2C)cc(C)c1F [Compound 312, 3-((1S,2S)-1-(5-((R)-2,2-dimethyltetrahydro-2H-pyran-4-yl)-2-((4S,7R)-3-(3-(4-fluoro-1-methyl-1H-indazol-5-yl)-2-oxo-2,3-dihydro-1H-imidazol-1-yl)-2-(4-fluoro-3,5-dimethylphenyl)-2,4,5,6,7,8-hexahydro-4,7-epiminocyclohepta [c]pyrazole-9-carbonyl)-1H-pyrrolo[2,3-b]pyridin-1-yl)-2-methylcyclopropyl)-1,2,4-oxadiazol-5(4H)-one]
7 | ≥ 10000 nM | Cc1cc(-n2nc3c(c2-n2ccn(-c4ccc5c(cnn5C)c4F)c2=O)[C@@H]2CC[C@H](C3)N2C(=O)c2cc3cc([C@H]4CCOC4(C)C)ccc3n2[C@@]2(c3noc(=O)[nH]3)C[C@@H]2C)cc(C)c1F [Compound 419, 3-[(1S,2S)-1-[5-[(3R)-2,2-dimethyltetrahydrofuran-3-yl]-2-[(1S,8R)-4-(4-fluoro-3,5-dimethyl-phenyl)-3-[3-(4-fluoro-1-methyl-indazol-5-yl)-2-oxo-imidazol-1-yl]-4,5,11-triazatricyclo[6.2.1.02,6]undeca-2,5-diene-11-carbonyl]indol-1-yl]-2-methyl-cyclopropyl]-4H-1,2,4-oxadiazol-5-one]
8 | ≥ 10000 nM | Cc1cc(-n2nc3c(c2-n2ccn(-c4ccc5c(cnn5C)c4F)c2=O)[C@@H]2CC[C@H](C3)N2C(=O)c2cc3cc([C@@H]4CCOC5(CC5)C4)ccc3n2[C@@]2(c3noc(=O)[nH]3)C[C@H]2C)cc(C)c1F [Compound 541, 3-((1S,2R)-1-(2-((4S,7R)-3-(3-(4-fluoro-1-methyl-1H-indazol-5-yl)-2-oxo-2,3-dihydro-1H-imidazol-1-yl)-2-(4-fluoro-3,5-dimethylphenyl)-2,4,5,6,7,8-hexahydro-4,7-epiminocyclohepta [c]pyrazole-9-carbonyl)-5-((R)-4-oxaspiro[2.5]octan-7-yl)-1H-indol-1-yl)-2-methylcyclopropyl)-1,2,4-oxadiazol-5 (4H)-one]
9 | 52.9 nM | Cc1cc(-n2nc3c(c2-n2ccn(-c4ccc5c(cnn5C)c4)c2=O)[C@@H]2CC[C@H](C3)N2C(=O)c2cc3cc([C@H]4CCOC(C)(C)C4)ccc3n2[C@@]2(c3noc(=O)[nH]3)C[C@@H]2C)cc(C)c1F [Compound 302, 3-((1S,2S)-1-(5-((S)-2,2-dimethyltetrahydro-2H-pyran-4-yl)-2-((4S,7R)-2-(4-fluoro-3,5-dimethylphenyl)-3-(3-(1-methyl-1H-indazol-5-yl)-2-oxo-2,3-dihydro-1H-imidazol-1-yl)-2,4,5,6,7,8-hexahydro-4,7-epiminocyclohepta [c]pyrazole-9-carbonyl)-1H-indol-1-yl)-2-methylcyclopropyl)-1,2,4-oxadiazol-5 (4H)-one]
10 | 650 nM | Cc1cc(-n2nc3c(c2-n2ccn(-c4ccc5c(cnn5C)c4F)c2=O)[C@@H]2CC[C@H](C3)N2C(=O)c2cc3cc([C@@H]4CCOC4(C)C)ccc3n2[C@@]2(c3noc(=O)[nH]3)C[C@@H]2C)cc(C)c1F [Compound 420, 3-[(1S,2S)-1-[5-[(3S)-2,2-dimethyltetrahydrofuran-3-yl]-2-[(1S,8R)-4-(4-fluoro-3,5-dimethyl-phenyl)-3-[3-(4-fluoro-1-methyl-indazol-5-yl)-2-oxo-imidazol-1-yl]-4,5,11-triazatricyclo[6.2.1.02,6]undeca-2,5-diene-11-carbonyl]indol-1-yl]-2-methyl-cyclopropyl]-4H-1,2,4-oxadiazol-5-one]
